Consider 3 compounds from the NIST ThermoML archive (doi:10.1016/j.fluid.2014.01.033).

SMILES strings stand for the structures. ± gives the expanded uncertainty stated by the source.

The conditions of data set [1]: 298.15 K; 101.33 kPa; Liquid; Vibrating tube method.
Data set [2] can be described thus: refractive index (Na D-line) (dimensionless). As to conditions: 298.15 K; 101.33 kPa; Liquid; Standard Abbe refractometry.

In the case of `CC#N` [acetonitrile], in data set [1], the mass density (usually the mass of a sample divided by its volume) came out at 776.55 ± 0.19 kg/m3. Also, in data set [2], the refractive index – broadly, a measure of how strongly the sample bends light – worked out at 1.3413 ± 0.0007.
In the case of `c1ccccc1` [benzene], the mass density in data set [1] is 873.79 ± 0.17 kg/m3. Besides, in data set [2], the refractive index is on record as 1.4978 ± 0.0007.
In the case of `CCCCCC` [hexane], in data set [1], the mass density worked out at 655.12 ± 0.21 kg/m3. Besides, the refractive index in data set [2] is listed as 1.3725 ± 0.0007.
